Assay type in all cases: biochemical
One assay has as its target T1, Human DPP 9 (Homo sapiens, UniProt Q86TI2).
T1 construct: made in house; host or cells: insect cells, baculovirus Bac-to-Bac
Put plainly: DPP 9 activity screening (Ala-Pro-AMC fluorescence). The settings on record: N.I. = No Inhibition. A digest of the protocol: (§1)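 Insect-cell baculovirus-expressed human enzymes hydrolyse Ala-Pro-AMC; AMC release monitored kinetically as fluorescence rate (ex 355/em 460 nm). Primary screen at a single concentration (e.g. 20 μg/mL); dose–response fitted to variable-slope sigmoid with bottom/top fixed at 0 and 100.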

In another assay the target is T2, FAP (Homo sapiens, UniProt Q12884).
T2 sequence (Q12884 1-760): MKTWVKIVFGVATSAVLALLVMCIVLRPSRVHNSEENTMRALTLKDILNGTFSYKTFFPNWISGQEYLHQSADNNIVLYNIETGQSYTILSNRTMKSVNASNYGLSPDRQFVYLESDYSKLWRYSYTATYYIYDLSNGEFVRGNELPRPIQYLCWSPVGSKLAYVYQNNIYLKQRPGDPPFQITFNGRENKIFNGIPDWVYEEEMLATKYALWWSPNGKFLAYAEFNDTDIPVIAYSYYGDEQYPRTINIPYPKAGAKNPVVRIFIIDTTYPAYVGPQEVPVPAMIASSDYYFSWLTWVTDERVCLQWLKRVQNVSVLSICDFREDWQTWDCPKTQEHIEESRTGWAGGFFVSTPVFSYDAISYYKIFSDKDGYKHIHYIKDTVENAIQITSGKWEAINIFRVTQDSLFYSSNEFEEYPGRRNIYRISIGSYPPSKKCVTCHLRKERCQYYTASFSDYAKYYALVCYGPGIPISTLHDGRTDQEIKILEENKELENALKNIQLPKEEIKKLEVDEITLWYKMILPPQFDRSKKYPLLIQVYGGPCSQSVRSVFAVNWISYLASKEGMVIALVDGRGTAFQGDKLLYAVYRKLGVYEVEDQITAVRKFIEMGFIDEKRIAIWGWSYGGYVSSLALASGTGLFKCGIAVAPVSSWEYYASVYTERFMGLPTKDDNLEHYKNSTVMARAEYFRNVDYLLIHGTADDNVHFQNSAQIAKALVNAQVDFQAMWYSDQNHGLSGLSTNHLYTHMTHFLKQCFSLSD
Kind of assay: FAP inhibition (Table 1). To be noted: N.I. = No Inhibition.

Another assay deals with T3, human DPP 8 (Homo sapiens, UniProt Q6V1X1).
T3 construct: made in house; host or cells: insect cells, baculovirus Bac-to-Bac
T3 sequence (Q6V1X1 whole entry): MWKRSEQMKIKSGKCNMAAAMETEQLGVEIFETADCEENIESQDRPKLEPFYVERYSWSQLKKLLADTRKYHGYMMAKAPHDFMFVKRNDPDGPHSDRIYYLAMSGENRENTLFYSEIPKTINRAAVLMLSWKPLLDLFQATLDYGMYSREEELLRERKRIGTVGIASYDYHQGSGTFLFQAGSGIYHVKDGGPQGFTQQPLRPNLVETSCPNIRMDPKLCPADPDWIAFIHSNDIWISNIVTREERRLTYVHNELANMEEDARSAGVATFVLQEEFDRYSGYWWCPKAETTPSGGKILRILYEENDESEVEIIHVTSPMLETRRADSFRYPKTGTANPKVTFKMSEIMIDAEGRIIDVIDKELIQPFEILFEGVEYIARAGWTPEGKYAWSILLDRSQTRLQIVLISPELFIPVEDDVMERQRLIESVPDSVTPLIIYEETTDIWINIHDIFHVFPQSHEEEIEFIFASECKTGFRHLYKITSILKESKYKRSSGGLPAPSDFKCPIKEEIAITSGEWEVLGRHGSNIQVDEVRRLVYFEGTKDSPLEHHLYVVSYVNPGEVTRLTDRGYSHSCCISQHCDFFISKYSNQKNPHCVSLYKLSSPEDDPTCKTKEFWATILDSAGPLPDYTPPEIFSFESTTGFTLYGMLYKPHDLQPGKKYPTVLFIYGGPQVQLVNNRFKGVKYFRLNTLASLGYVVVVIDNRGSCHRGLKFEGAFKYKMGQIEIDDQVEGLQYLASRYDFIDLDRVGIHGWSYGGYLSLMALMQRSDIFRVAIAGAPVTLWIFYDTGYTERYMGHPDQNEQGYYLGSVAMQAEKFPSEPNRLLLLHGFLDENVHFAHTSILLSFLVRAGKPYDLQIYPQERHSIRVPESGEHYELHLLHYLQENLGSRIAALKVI
Kind of assay: DPP 8 activity screening (Ala-Pro-AMC fluorescence). To be noted: N.I. = No Inhibition. The gist of the method:
as §1

For a further assay, the target named is T4, human DPP IV (Homo sapiens, UniProt P27487).
T4 construct: extracellular fragment of protease DPP IV (aa29-766); made in house; host or cells: baculovirus expression system Bac-to-Bac
T4 sequence (P27487 29-766): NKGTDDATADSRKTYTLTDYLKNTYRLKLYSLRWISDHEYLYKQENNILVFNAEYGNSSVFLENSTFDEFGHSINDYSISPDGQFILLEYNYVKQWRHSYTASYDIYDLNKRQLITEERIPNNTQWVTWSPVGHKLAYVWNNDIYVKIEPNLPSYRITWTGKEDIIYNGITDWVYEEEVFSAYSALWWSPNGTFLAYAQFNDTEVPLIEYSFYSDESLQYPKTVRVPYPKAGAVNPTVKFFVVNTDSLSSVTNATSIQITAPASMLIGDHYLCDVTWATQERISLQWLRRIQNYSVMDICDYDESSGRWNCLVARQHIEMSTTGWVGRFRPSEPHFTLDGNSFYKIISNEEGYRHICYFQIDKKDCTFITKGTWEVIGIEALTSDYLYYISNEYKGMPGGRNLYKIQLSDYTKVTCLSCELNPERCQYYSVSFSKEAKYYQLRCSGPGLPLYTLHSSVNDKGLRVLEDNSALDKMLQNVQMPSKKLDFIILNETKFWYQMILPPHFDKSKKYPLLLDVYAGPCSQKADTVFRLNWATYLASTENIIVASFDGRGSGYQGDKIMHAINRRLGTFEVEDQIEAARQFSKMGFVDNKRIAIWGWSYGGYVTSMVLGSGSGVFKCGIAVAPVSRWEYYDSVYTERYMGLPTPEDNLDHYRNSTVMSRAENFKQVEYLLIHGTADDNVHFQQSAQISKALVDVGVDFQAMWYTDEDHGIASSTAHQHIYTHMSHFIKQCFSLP
Put plainly: DPP IV activity screening (Ala-Pro-AMC fluorescence). A digest of the protocol:
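DPP IV activity is taken as the linear rate of fluorescence change at 460 nm. Samples are dissolved in DMSO and screened at a single concentration (e.g. 20 μg/mL). Dose-response data are fit to a variable-slope sigmoidal model with bottom and top fixed at 0 and 100.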

For assay [1], the target named is dipeptidyl peptidase 7 (DPP 7) (Homo sapiens, UniProt Q9UHL4). Put plainly: DPP 7 activity screening. The settings on record: N.I. = No Inhibition. A digest of the protocol: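 Sample dissolved in DMSO, final DMSO kept at a level not affecting activity; tested at a single concentration from preliminary screening (e.g. 20 μg/mL). Dose-response data fitted to sigmoidal variable-slope model with bottom and top fixed at 0 and 100.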

Molecules are shown by their SMILES. Counter-ions that a name gives are not always drawn.

T1 sequence (Q86TI2 whole entry): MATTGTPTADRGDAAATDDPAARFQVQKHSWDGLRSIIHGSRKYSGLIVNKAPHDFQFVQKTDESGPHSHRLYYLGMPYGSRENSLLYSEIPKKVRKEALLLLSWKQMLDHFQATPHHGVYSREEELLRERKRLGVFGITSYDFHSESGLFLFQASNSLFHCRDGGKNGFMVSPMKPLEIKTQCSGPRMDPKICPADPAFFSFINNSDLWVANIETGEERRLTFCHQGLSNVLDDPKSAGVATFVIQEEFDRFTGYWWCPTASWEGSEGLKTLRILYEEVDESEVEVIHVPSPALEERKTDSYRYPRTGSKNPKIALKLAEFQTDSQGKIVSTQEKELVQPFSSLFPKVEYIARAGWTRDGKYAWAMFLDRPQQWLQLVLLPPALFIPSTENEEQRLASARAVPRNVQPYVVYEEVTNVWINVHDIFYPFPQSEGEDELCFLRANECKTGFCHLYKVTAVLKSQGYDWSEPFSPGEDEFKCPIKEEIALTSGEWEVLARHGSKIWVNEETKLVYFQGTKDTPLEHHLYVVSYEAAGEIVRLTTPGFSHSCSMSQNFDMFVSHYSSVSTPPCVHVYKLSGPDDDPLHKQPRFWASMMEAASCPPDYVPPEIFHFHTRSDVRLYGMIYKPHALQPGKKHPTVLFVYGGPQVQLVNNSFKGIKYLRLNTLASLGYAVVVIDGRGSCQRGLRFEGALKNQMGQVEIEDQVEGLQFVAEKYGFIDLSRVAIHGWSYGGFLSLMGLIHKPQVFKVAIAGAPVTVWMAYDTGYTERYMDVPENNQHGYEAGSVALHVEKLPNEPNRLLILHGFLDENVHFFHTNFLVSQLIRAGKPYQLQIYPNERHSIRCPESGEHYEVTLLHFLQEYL

In the case of `CNC(=O)c1cc2nc(N3CCC[C@@H](N)C3)n(Cc3ccccc3C#N)c(=O)c2s1` [Compound 104, (R)-2-(3-aminopiperidin-1-yl)-3-(2-cyanobenzyl)-N-methyl-4-oxo-3,4-dihydrothieno[3,2-d]pyrimidine-6-carboxamide], the IC50 against Human DPP 9 was found to be 254 µM; at FAP, 239 µM; against human DPP IV, 0.0171 µM. In addition, the “DPP 8 IC50” value on human DPP 8 is on record as “N.I”. Besides, the “DPP 7 IC50” value in assay [1] is “N.I”.

Turning to `CC(C)NC(=O)c1cc2nc(N3CCC[C@@H](N)C3)n(Cc3ccccc3C#N)c(=O)c2s1` [Compound 115, (R)-2-(3-aminopiperidin-1-yl)-3-(2-cyanobenzyl)-N-isopropyl-4-oxo-3,4-dihydrothieno[3,2-d]pyrimidine-6-carboxamide], the IC50 was found to be 167 µM against Human DPP 9, 146 µM on FAP, 181 µM against human DPP 8 and 0.0145 µM at human DPP IV. For the same compound, the “DPP 7 IC50” value in assay [1] is listed as “N.I”.

With `COC(=O)[C@@H](NC(=O)c1csc2c(=O)n(Cc3ccccc3C#N)c(N3CCC[C@@H](N)C3)nc12)c1ccccc1` [Compound 66, (S)-methyl 2-(2-((R)-3-aminopiperidin-1-yl)-3-(2-cyanobenzyl)-4-oxo-3,4-dihydrothieno[3,2-d]pyrimidine-7-carboxamido)-2-phenylacetate], the IC50 on Human DPP 9 was 47.1 µM; on FAP it was 18.8 µM; against human DPP 8 it was 14.4 µM; against human DPP IV it was 0.0358 µM. Besides, the “DPP 7 IC50” value in assay [1] was “N.I”.

As for `COC(=O)C1CCN(Cc2csc3c(=O)n(Cc4ccccc4C#N)c(N4CCC[C@@H](N)C4)nc23)CC1` [Compound 54, (R)-methyl 1-((2-(3-aminopiperidin-1-yl)-3-(2-cyanobenzyl)-4-oxo-3,4-dihydrothieno[3,2-d]pyrimidin-7-yl)-methyl)piperidine-4-carboxylate], the “DPP 9 IC50” value at Human DPP 9 is recorded as “N.I”. Also, on FAP, the “FAP IC50” value is “N.I”. Further, on human DPP 8, the “DPP 8 IC50” value was “N.I”. Moreover, the IC50 against human DPP IV came to 0.238 µM; in assay [1], 39.2 µM.

Regarding `N#Cc1ccccc1Cn1c(N2CCC[C@@H](N)C2)nc2cc(C(=O)N3CCCC3)sc2c1=O` [Compound 107, (R)-2-((2-(3-aminopiperidin-1-yl)-4-oxo-6-(pyrrolidine-1-carbonyl)thieno-[3,2-d]pyrimidin-3(4H)-yl)methyl)-benzonitrile], the IC50 against Human DPP 9 was 122 µM; at FAP, 98.6 µM; on human DPP 8 it was 39.7 µM; on human DPP IV it was 0.0241 µM. Also, the “DPP 7 IC50” value in assay [1] is listed as “N.I”.

With `COC(=O)[C@H](Cc1ccc(O)cc1)NC(=O)c1cc2nc(N3CCC[C@@H](N)C3)n(Cc3ccccc3C#N)c(=O)c2s1` [Compound 101, (S)-methyl 2-(2-((R)-3-aminopiperidin-1-yl)-3-(2-cyanobenzyl)-4-oxo-3,4-dihydrothieno[3,2-d]pyrimidine-6-carboxamido)-3-(4-hydroxyphenyl)-propanoate], the IC50 on Human DPP 9 turned out to be 14.8 µM; against FAP, 42 µM; against human DPP 8 it was 13.5 µM; at human DPP IV it was 0.0306 µM. For the same compound, in assay [1], the “DPP 7 IC50” value is on record as “N.I”.

As for `N#Cc1ccccc1Cn1c(N2CCC[C@@H](N)C2)nc2c(C(=O)NCCO)csc2c1=O` [Compound 60, (R)-2-(3-aminopiperidin-1-yl)-3-(2-cyanobenzyl)-N-(2-hydroxyethyl)-4-oxo-3,4-dihydrothieno[3,2-d]-pyrimidine-7-carboxamide], the IC50 is 110 µM at Human DPP 9, 57.1 µM against FAP, 36.8 µM against human DPP 8 and 0.0133 µM at human DPP IV. Moreover, in assay [1], the “DPP 7 IC50” value is “N.I”.

Take `N#Cc1ccccc1Cn1c(N2CCC[C@@H](N)C2)nc2c(C(=O)O)csc2c1=O` [Compound 44, (R)-2-(3-aminopiperidin-1-yl)-3-(2-cyanobenzyl)-4-oxo-3,4-dihydrothieno-[3,2-d]pyrimidine-7-carboxylic acid hydrochloride]: the “DPP 9 IC50” value at Human DPP 9 is on record as “N.I”. On FAP, the “FAP IC50” value is recorded as “N.I”. The “DPP 8 IC50” value at human DPP 8 was “N.I”. Moreover, the IC50 came out at 0.00976 µM against human DPP IV and 39.2 µM in assay [1].

Turning to `CC(=O)OCc1csc2c(=O)n(Cc3ccccc3C#N)c(N3CCC[C@@H](N)C3)nc12` [Compound 56, (R)-(2-(3-aminopiperidin-1-yl)-3-(2-cyanobenzyl)-4-oxo-3,4-dihydrothieno-[3,2-d]pyrimidin-7-yl)methyl acetate], the “DPP 9 IC50” value on Human DPP 9 was “N.I”. In addition, the “FAP IC50” value at FAP is listed as “N.I”. For the same compound, the “DPP 8 IC50” value at human DPP 8 is on record as “N.I”. This compound also gave a half-maximal inhibitory concentration (IC50) on human DPP IV of 0.0113 µM. Further, the “DPP 7 IC50” value in assay [1] was “N.I”.

`COC(=O)[C@@H](NC(=O)c1cc2nc(N3CCC[C@@H](N)C3)n(Cc3ccccc3C#N)c(=O)c2s1)C(C)C` [Compound 100, (S)-methyl 2-(2-((R)-3-aminopiperidin-1-yl)-3-(2-cyanobenzyl)-4-oxo-3,4-dihydrothieno[3,2-d]pyrimidine-6-carboxamido)-3-methylbutanoate]: the IC50 against Human DPP 9 was 117 µM; against FAP, 119 µM; against human DPP 8, 43.1 µM; against human DPP IV it was 0.0283 µM. The “DPP 7 IC50” value in assay [1] is reported as “N.I”.

For `COCCCNC(=O)c1csc2c(=O)n(Cc3ccccc3C#N)c(N3CCC[C@@H](N)C3)nc12` [Compound 75, (R)-2-(3-aminopiperidin-1-yl)-3-(2-cyanobenzyl)-N-(3-methoxypropyl)-4-oxo-3,4-dihydrothieno[3,2-d]pyrimidine-7-carboxamide], the IC50 on Human DPP 9 was 91.7 µM; at FAP, 28.3 µM; at human DPP 8, 23 µM; on human DPP IV, 0.00815 µM. The “DPP 7 IC50” value in assay [1] is recorded as “N.I”.

With `COC(=O)[C@@H](NC(=O)c1csc2c(=O)n(Cc3ccccc3C#N)c(N3CCC[C@@H](N)C3)nc12)C(C)C` [Compound 59, (S)-methyl 2-(2-((R)-3-aminopiperidin-1-yl)-3-(2-cyanobenzyl)-4-oxo-3,4-dihydrothieno[3,2-d]pyrimidine-7-carboxamido)-3-methylbutanoate], the IC50 on Human DPP 9 was determined as 187 µM; against FAP, 49.5 µM; against human DPP 8, 35 µM; against human DPP IV it was 0.0266 µM. Moreover, in assay [1], the “DPP 7 IC50” value is recorded as “N.I”.

As to `N#Cc1ccccc1Cn1c(N2CCC[C@@H](N)C2)nc2c(C(=O)NCc3ccc(C(F)(F)F)cc3)csc2c1=O` [Compound 68, (R)-2-(3-aminopiperidin-1-yl)-3-(2-cyanobenzyl)-4-oxo-N-(4-(trifluoromethyl)benzyl)-3,4-dihydrothieno[3,2-d]pyrimidine-7-carboxamide], the IC50 against Human DPP 9 came out at 100 µM; against FAP it was 8.78 µM; on human DPP 8 it was 8.16 µM; against human DPP IV, 0.023 µM; in assay [1], 145 µM.

Take `Cc1ccc(CNC(=O)c2cc3nc(N4CCC[C@@H](N)C4)n(Cc4ccccc4C#N)c(=O)c3s2)cc1` [Compound 122, (R)-2-(3-aminopiperidin-1-yl)-3-(2-cyanobenzyl)-N-(4-methylbenzyl)-4-oxo-3,4-dihydrothieno[3,2-d]-pyrimidine-6-carboxamide]: the 50% inhibitory concentration (IC50) at Human DPP 9 is 53.1 µM; at human DPP IV, 0.0263 µM. The “FAP IC50” value on FAP is given as “N.I”. For the same compound, the “DPP 8 IC50” value on human DPP 8 is recorded as “N.I”. Further, in assay [1], the “DPP 7 IC50” value is listed as “N.I”.

In the case of `N#Cc1ccccc1Cn1c(N2CCC[C@@H](N)C2)nc2cc(C(=O)N3CCS(=O)(=O)CC3)sc2c1=O` [Compound 114, (R)-2-((2-(3-aminopiperidin-1-yl)-6-(1,1-dioxidothiomorpholine-4-carbonyl)-4-oxothieno[3,2-d]pyrimidin-3(4H)-yl)-methyl)benzonitrile], the IC50 against Human DPP 9 was found to be 307 µM; against FAP it was 52.2 µM; against human DPP 8, 56.2 µM; against human DPP IV it was 0.0222 µM. For the same compound, the “DPP 7 IC50” value in assay [1] was “N.I”.

The values are drawn from patent US9045491B2, “Thienyl [3,2-D] pyrimidin-4-one compounds, preparation method, pharmaceutical compositions and use thereof” (SHANGHAI INSTITUTE OF MATERIA MEDICA, CHINESE ACADEMY OF …, priority 2011, dated 2015).
